The values below come from US5194586A, “Anti-ATLA antibody binding peptides” (Kuraray Co., Ltd., priority 1989, dated 1993).

This experiment relates to anti-ATLA antibody. The experiment in a line: ELISA of Example 24: single peptides and 1:1 mixture, dried stored cups. Format: binding, human. To be noted: for OD492: listed as Ex. 9. The protocol: Each serum specimen was assayed for the presence of the anti-ATLA antibody by the following ELISA in which an absorbance was measured.
The peptide prepared in Example 1 or the peptide prepared in Reference Example 9 were each dissolved in 0.01M carbonate buffer (pH 9.5) to prepare a solution containing each peptide. In addition, a solution containing both peptides was prepared by mixing the above two solutions at a concentration ratio of 1:1 (the former:the latter). Each 100 μl of the resulting peptide solutions was added to a cup for ELISA made of polystyrene (the same as mentioned above) and the mixture was allowed to stand at 4° C. overnight so that the peptide is coated on the cup. After removing the peptide solution in these cups, to each cup was added PBS (200 μl ) containing 20% by volume of normal goat serum and the mixture was allowed to stand at room temperature for 3 hours to block non-specific protein binding sites. After removing the blocking solution in the cups, the cups were dried and stored at 4° C.
Using PBS containing 10% by volume of normal goat serum and 0.05% by volume of Tween 20 as a diluent, the diluent and each serum specimen (15 specimens of the ATLV-carrier serum and 15 specimens of the normal human serum) was mixed at a ratio of 20:1 (diluent:specimen; v/v) and each 100 μl of the resulting diluted serums was added to above each assay cup. After incubation at 37° C. for 1 hour, the cups were washed with PBS containing 0.05% by volume of Tween 20 (×3) and then with PBS (×1).
To each resulting assay cup was added PBS containing horseradish peroxidase conjugated goat anti-human IgG antibody (diluted at an optimal concentration with PBS containing 10% by volume of normal goat serum and 0.2% by volume of Tween 20; 100 μl ). After incubation at 37° C. for 30 minutes, these cups were washed with PBS containing 0.05% by volume of Tween 20 (×3) and then with PBS (×1). […] After the mixtures were allowed to stand at room temperature for 15 minutes, to each mixture was added 1N sulfuric acid (100 μl) to stop the reaction and an absorbance at 492 nm (OD492) of each reaction solution was measured.
Cutoff value was determined using the OD492 values of the fifteen normal human serums and used for determination as to whether the specimens are positive or negative for the anti-ATLA antibody. The cutoff value was calculated by the equation: cutoff value = ((mean value of OD492 values of the normal human serum) +2SD). When the presence of the anti-ATLA antibody in each serum specimen was assayed using this cutoff value, all ATLV-carrier serums were determined to be positive and all normal human serums were determined to be negative.
(An ELISA detects its analyte on a solid surface through an enzyme-linked reagent.)

Where “and” joins values, the source holds several entries; their conditions need not be identical. Equal entries are not always repeated.

Turning to “Example 9: peptide (I), X is -Lys-Lys-Lys-, A is the env peptide fragment (A-3); SEQ ID NO: 14 (KKKFLNTEPSQLPPTAPPLLPHSNLDHI)”, the OD492 (ATLV-carrier serum, individual specimens No. 1-15, diluent:specimen 20:1) is 0.873 and 0.973 and 1.405 and 0.099 and 1.623 and 1.437 and 0.137 and 0.088 and 0.111 and 1.029 and 1.071 and 1.156 and 1.061 and 0.549 and 1.478; the OD492 (normal human serum, individual specimens No. 1-15) was 0.078 and 0.062 and 0.040 and 0.089 and 0.133 and 0.103 and 0.099 and 0.083 and 0.151 and 0.065 and 0.093 and 0.097 and 0.100 and 0.094 and 0.154. Moreover, the Cutoff value (mean OD492 of the normal human serum + 2SD) was 0.158. In addition, the “Mean OD492” value (mean of the fifteen normal human serums) was determined as 0.096.
